This note sets out measurements from patent US8134015B2, “Compound inhibiting in vivo phosphorous transport and medicine containing the same” (Kyowa Hakko Kirin Co., Ltd., priority 2003, dated 2012).

SMILES strings stand for the structures. pIC50: −log10 of the molar value. Bounds are passed on as bounds.

Usually pIC50 stands for −log10 of the IC50, conventionally taken in molar units.

For this test, the target named is T1, rat NaPi-2b (Rattus norvegicus, UniProt Q9JJ09).
T1 construct: expressed in transfected cells; host or cells: Xenopus oocytes injected with cRNA
T1 sequence (Q9JJ09 1-695): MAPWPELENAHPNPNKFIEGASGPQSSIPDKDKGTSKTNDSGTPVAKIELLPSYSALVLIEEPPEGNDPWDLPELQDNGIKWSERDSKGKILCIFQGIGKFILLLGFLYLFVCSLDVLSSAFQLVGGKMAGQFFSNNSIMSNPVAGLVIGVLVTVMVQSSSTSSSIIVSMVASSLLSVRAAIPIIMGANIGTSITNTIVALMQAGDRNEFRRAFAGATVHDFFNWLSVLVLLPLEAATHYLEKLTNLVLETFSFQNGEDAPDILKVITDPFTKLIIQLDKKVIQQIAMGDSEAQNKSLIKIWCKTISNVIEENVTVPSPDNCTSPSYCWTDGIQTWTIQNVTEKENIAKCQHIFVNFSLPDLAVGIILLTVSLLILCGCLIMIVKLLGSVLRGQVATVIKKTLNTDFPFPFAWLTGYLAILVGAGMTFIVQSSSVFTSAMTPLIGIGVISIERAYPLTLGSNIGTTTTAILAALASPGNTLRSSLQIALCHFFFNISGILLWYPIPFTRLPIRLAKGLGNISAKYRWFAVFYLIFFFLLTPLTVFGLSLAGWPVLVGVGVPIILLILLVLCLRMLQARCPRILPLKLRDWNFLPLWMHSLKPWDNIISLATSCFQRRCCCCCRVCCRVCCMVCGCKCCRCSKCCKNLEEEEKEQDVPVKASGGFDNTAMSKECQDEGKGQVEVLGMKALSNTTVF
In words: Sodium-dependent phosphate uptake of Xenopus oocytes which expressed NaPi-2b (32P). The note with it: Xenopus oocytes expressing rat NaPi-2b, 32P radioactive phosphorus; read-out: IC50 (phosphate uptake inhibitory activity). The format is cell-based. An outline of the steps:
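Oocytes injected with rat NaPi-2b cRNA, cultured 2 d, then 32P uptake measured with compound. Values: % inhibition at 300 and 100 μM, both from one inhibition curve.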

For `CN(CCO)Cc1cccc(C(=O)Nc2ccc(Cl)cc2C(=O)N/N=C/c2cccc(F)c2)c1` [Compound 394, N-[4-Chloro-2-(3-fluoro-benzylidene-hydrazinocarbonyl)-phenyl]-3-{[(2-hydroxy-ethyl)-methyl-amino]-methyl}-benzamide], the pIC50 is 6.02.
Consider `CN(CCO)Cc1cccc(C(=O)Nc2ccc(Cl)cc2C(=O)N/N=C/c2ccc(F)cc2)c1` [Compound 395, N-[4-Chloro-2-(4-fluoro-benzylidene-hydrazinocarbonyl)-phenyl]-3-{[(2-hydroxy-ethyl)-methyl-amino]-methyl}-benzamide], for which the pIC50 is 5.07.
The result for `Cc1cccc(/C=N/NC(=O)c2cc(Cl)ccc2NC(=O)c2cccc(CN(C)CCO)c2)c1` [Compound 396, N-[4-Chloro-2-(3-methyl-benzylidene-hydrazinocarbonyl)-phenyl]-3-{[(2-hydroxy-ethyl)-methyl-amino]-methyl}-benzamide] reads 5.09; that for `Cc1ccc(/C=N/NC(=O)c2cc(Cl)ccc2NC(=O)c2cccc(CN(C)CCO)c2)cc1` [Compound 397, N-[4-Chloro-2-(4-methyl-benzylidene-hydrazinocarbonyl)-phenyl]-3-{[(2-hydroxy-ethyl)-methyl-amino]-methyl}-benzamide], 5.03.
Turning to `Cc1ccc(/C=N/NC(=O)c2cc(Cl)ccc2NC(=O)c2cccc(CN(C)CCO)c2)cc1C` [Compound 398, N-[4-Chloro-2-(3,4-dimethyl-benzylidene-hydrazinocarbonyl)-phenyl]-3-{[(2-hydroxy-ethyl)-methyl-amino]-methyl}-benzamide], the negative logarithm of the IC50 (pIC50) is above 6.52.
Then `CN(CCO)Cc1cccc(C(=O)Nc2ccc(Cl)cc2C(=O)N/N=C/c2ccc(Cl)c(C(F)(F)F)c2)c1` [Compound 399, N-[4-Chloro-2-(4-chloro-3-trifluoromethyl-benzylidene-hydrazinocarbonyl)-phenyl]-3-{[(2-hydroxy-ethyl)-methyl-amino]-methyl}-benzamide], with 5.44; and `COc1cccc(/C=N/NC(=O)c2cc(Cl)ccc2NC(=O)c2cccc(CN(C)CCO)c2)c1` [Compound 400, N-[4-Chloro-2-(3-methoxy-benzylidene-hydrazinocarbonyl)-phenyl]-3-{[(2-hydroxy-ethyl)-methyl-amino]-methyl}-benzamide], with above 6.52; and `COc1ccc(/C=N/NC(=O)c2cc(Cl)ccc2NC(=O)c2cccc(CN(C)CCO)c2)cc1` [Compound 401, N-[4-Chloro-2-(4-methoxy-benzylidene-hydrazinocarbonyl)-phenyl]-3-{[(2-hydroxy-ethyl)-methyl-amino]-methyl}-benzamide], with 5.21.
The result for `CN(CCO)Cc1cccc(C(=O)Nc2ccc(Cl)cc2C(=O)N/N=C/c2cccc(O)c2)c1` [Compound 402, N-[4-Chloro-2-(3-hydroxy-benzylidene-hydrazinocarbonyl)-phenyl]-3-{[(2-hydroxy-ethyl)-methyl-amino]-methyl}-benzamide] reads 4.85; that for `CN(CCO)Cc1cccc(C(=O)Nc2ccc(Cl)cc2C(=O)N/N=C/c2ccc(O)cc2)c1` [Compound 403, N-[4-Chloro-2-(4-hydroxy-benzylidene-hydrazinocarbonyl)-phenyl]-3-{[(2-hydroxy-ethyl)-methyl-amino]-methyl}-benzamide], 4.57.
The result for `Cc1cccc(/C=N/NC(=O)c2cc(Cl)ccc2NC(=O)c2cccc(CN(CCO)CCO)c2)c1` [Compound 404, 3-{[Bis-(2-hydroxy-ethyl)-amino]-methyl}-N-[4-chloro-2-(3-methyl-benzylidene-hydrazinocarbonyl)-phenyl]-benzamide] reads 5.66; that for `Cc1ccc(/C=N/NC(=O)c2cc(Cl)ccc2NC(=O)c2cccc(CN(CCO)CCO)c2)cc1` [Compound 405, 3-{[Bis-(2-hydroxy-ethyl)-amino]-methyl}-N-[4-chloro-2-(4-methyl-benzylidene-hydrazinocarbonyl)-phenyl]-benzamide], 5.72.
In the case of `Cc1ccc(/C=N/NC(=O)c2cc(Cl)ccc2NC(=O)c2cccc(CN(CCO)CCO)c2)cc1C` [Compound 406, 3-{[Bis-(2-hydroxy-ethyl)-amino]-methyl}-N-[4-chloro-2-(3,4-dimethyl-benzylidene-hydrazinocarbonyl)-phenyl]-benzamide], the pIC50 was 6.06.
The result for `O=C(Nc1ccc(Cl)cc1C(=O)N/N=C/c1ccc(Cl)c(C(F)(F)F)c1)c1cccc(CN(CCO)CCO)c1` [Compound 407, 3-{[Bis-(2-hydroxy-ethyl)-amino]-methyl}-N-[4-chloro-2-(4-chloro-3-trifluoromethyl-benzylidene-hydrazinocarbonyl)-phenyl]-benzamide] reads 6.24; that for `COc1cccc(/C=N/NC(=O)c2cc(Cl)ccc2NC(=O)c2cccc(CN(CCO)CCO)c2)c1` [Compound 408, 3-{[Bis-(2-hydroxy-ethyl)-amino]-methyl}-N-[4-chloro-2-(3-methoxy-benzylidene-hydrazinocarbonyl)-phenyl]-benzamide], 6.16; that for `COc1ccc(/C=N/NC(=O)c2cc(Cl)ccc2NC(=O)c2cccc(CN(CCO)CCO)c2)cc1` [Compound 409, 3-{[Bis-(2-hydroxy-ethyl)-amino]-methyl}-N-[4-chloro-2-(4-methoxy-benzylidene-hydrazinocarbonyl)-phenyl]-benzamide], 5.60.
Turning to `O=C(Nc1ccc(Cl)cc1C(=O)N/N=C/c1cccc(O)c1)c1cccc(CN(CCO)CCO)c1` [Compound 410, 3-{[Bis-(2-hydroxy-ethyl)-amino]-methyl}-N-[4-chloro-2-(3-hydroxy-benzylidene-hydrazinocarbonyl)-phenyl]-benzamide], the pIC50 is 5.39.
Regarding `O=C(Nc1ccc(Cl)cc1C(=O)N/N=C/c1ccc(O)cc1)c1cccc(CN(CCO)CCO)c1` [Compound 411, 3-{[Bis-(2-hydroxy-ethyl)-amino]-methyl}-N-[4-chloro-2-(4-hydroxy-benzylidene-hydrazinocarbonyl)-phenyl]-benzamide], the pIC50 is 5.00.
Then `CN(CCO)Cc1ccc(C(=O)Nc2ccc(Cl)cc2C(=O)N/N=C/c2cccc(F)c2)cc1` [Compound 412, N-[4-Chloro-2-(3-fluoro-benzylidene-hydrazinocarbonyl)-phenyl]-4-{[(2-hydroxy-ethyl)-methyl-amino]-methyl}-benzamide], with 5.10.
Then `CN(CCO)Cc1ccc(C(=O)Nc2ccc(Cl)cc2C(=O)N/N=C/c2ccc(F)cc2)cc1` [Compound 413, N-[4-Chloro-2-(4-fluoro-benzylidene-hydrazinocarbonyl)-phenyl]-4-{[(2-hydroxy-ethyl)-methyl-amino]-methyl}-benzamide], with above 5.52; and `Cc1cccc(/C=N/NC(=O)c2cc(Cl)ccc2NC(=O)c2ccc(CN(C)CCO)cc2)c1` [Compound 414, N-[4-Chloro-2-(3-methyl-benzylidene-hydrazinocarbonyl)-phenyl]-4-{[(2-hydroxy-ethyl)-methyl-amino]-methyl}-benzamide], with above 5.52; and `Cc1ccc(/C=N/NC(=O)c2cc(Cl)ccc2NC(=O)c2ccc(CN(C)CCO)cc2)cc1` [Compound 415, N-[4-Chloro-2-(4-methyl-benzylidene-hydrazinocarbonyl)-phenyl]-4-{[(2-hydroxy-ethyl)-methyl-amino]-methyl}-benzamide], with above 5.52.
Then `Cc1ccc(/C=N/NC(=O)c2cc(Cl)ccc2NC(=O)c2ccc(CN(C)CCO)cc2)cc1C` [Compound 416, N-[4-Chloro-2-(3,4-dimethyl-benzylidene-hydrazinocarbonyl)-phenyl]-4-{[(2-hydroxy-ethyl)-methyl-amino]-methyl}-benzamide], with 5.49; and `CN(CCO)Cc1ccc(C(=O)Nc2ccc(Cl)cc2C(=O)N/N=C/c2ccc(Cl)c(C(F)(F)F)c2)cc1` [Compound 417, N-[4-Chloro-2-(4-chloro-3-trifluoromethyl-benzylidene-hydrazinocarbonyl)-phenyl]-4-{[(2-hydroxy-ethyl)-methyl-amino]-methyl}-benzamide], with above 5.52; and `COc1cccc(/C=N/NC(=O)c2cc(Cl)ccc2NC(=O)c2ccc(CN(C)CCO)cc2)c1` [Compound 418, N-[4-Chloro-2-(3-methoxy-benzylidene-hydrazinocarbonyl)-phenyl]-4-{[(2-hydroxy-ethyl)-methyl-amino]-methyl}-benzamide], with 5.03.
On to `COc1ccc(/C=N/NC(=O)c2cc(Cl)ccc2NC(=O)c2ccc(CN(C)CCO)cc2)cc1` [Compound 419, N-[4-Chloro-2-(4-methoxy-benzylidene-hydrazinocarbonyl)-phenyl]-4-{[(2-hydroxy-ethyl)-methyl-amino]-methyl}-benzamide], for which the pIC50 is 5.04.
Take `CN(CCO)Cc1ccc(C(=O)Nc2ccc(Cl)cc2C(=O)N/N=C/c2cccc(O)c2)cc1` [Compound 420, N-[4-Chloro-2-(3-hydroxy-benzylidene-hydrazinocarbonyl)-phenyl]-4-{[(2-hydroxy-ethyl)-methyl-amino]-methyl}-benzamide]: the pIC50 was 4.57.
